According to US8012995B1, “Pharmaceutically active sulfonamide derivatives” (Merck Serono SA, priority 1999, dated 2011):

Tests used:
[1] = system: IL-2 release by PMA+Iono-stimulated Jurkat cells; assay: IL-2 release assay (ELISA); type: cell-based; conditions: Homo sapiens, PMA+Ionomycine-stimulated Jurkat cells, 24 hours, read-out: % Inhibition of IL2 Production @3 uM
Experimental: Jurkat cells, a human T cell leukemia cell line (American Type Culture Collection # TIB 152) were cultured in RPMI 1640 medium (Gibco, BRL) supplemented with 10% of […] FCS, Glutamine and Penstrep. The cell suspension in the medium is diluted to give 2.10^6 cells/mL. The cells were plated (2.10^5 cells/well) on a 96-well plate containing different concentration of test compound (final concentration of compounds, 10, 3, 1, […], 0.1 μM). This mixture is incubated 30 minutes at 37° C. in a humidified CO2 atmosphere. Cells were then treated with 10 ul PMA+Ionomycine (0.1 μM and 1 μM final concentration) in all wells except negative control. In wells without compounds, 10 μl of RPMI 2% DMSO (=0.1% final) is added. Cells are incubated 24 hours at 37° C. and then the supernatant harvested (freeze at −20° C. if not used the same day) prior to performing IL-2 ELISA test on the supernatant.
IL-2 release into the medium by PMA+Iono-stimulated Jurkat cells, in presence or absence of test compounds is assayed by ELISA. Following the procedure described below
Transfer 100 μl capture antibody diluted in PBS at 5 μg/mL into a 96 well ELISA plate and incubate overnight at room temperature.
Aspirate each well and wash 3 times with Wash buffer. After the last wash, damp the plate.
1. Saturate with 200 μl PBS-10% FCS. Incubate 1 hour at room temperature.
2. Repeat the wash step 2.
• 1. Add 100 μl of sample or standard ([…]) and incubate 2 hours at room temperature. • 2. Wash 3 times. • 3. Add 100 μl of biotinylated anti-human IL-2 at 12.5 ng/mL. Incubate 2 hours at room temperature. • 4. Wash 3 times. • 5. Add 100 μl streptavidin-HRP (Zymed #43-4323) at 1:10′000. Incubate 30 minutes at room temperature. • 6. Wash 3 times • 7. Add 100 μl substrate solution (citric acid/Na2HPO4 (1:1)+H2O2 1:2000+OPD). Incubate 20-30 minutes at room temperature. • 8. Add 50 μl of stop solution to each well. • 9. Determine optical density using a microliter plate reader set to 450 nm with correction at 570 nm.

[2] = target: JNK2 (Homo sapiens, UniProt P45984); assay: JNK2 in vitro assay (SPA, GST-c-Jun phosphorylation); type: biochemical; conditions: amount necessary to achieve 50% inhibition, GST-c-Jun substrate
Experimental: (§1) JNK 2 and 3 in vitro assays: JNK3 and/or 2 assays are performed in 96 well MTT plates, by incubation of 0.5 μg of recombinant pre-activated GST-JNK or GST-JNK2 with 1 μg of recombinant, biotinylated GST-c-Jun and 2 μM ^33γ-ATP (2 nCi/μl), in the to presence or absence of sulfonamide inhibitors if formula I and in a reaction volume of 50 μl containing 50 mM Tris-HCl, pH 8.0; 10 mM MgCl2; 1 mM Dithiothreitol, and 100 μM NaVO4. The incubation is performed for 120 min. at R.T and stopped upon addition of 200 μl of a solution containing 250 μg of Streptavidine-coated SPA beads (Amersham, Inc.)^•, 5 mM EDTA, 0.1% Triton X-100 and 50 μM ATP, in phosphate saline buffer. After incubation for 60 minutes at RT, beads are sedimented by centrifugation at 1500×g for 5 minutes, resuspended in 200 μl of PBS containing 5 mM EDTA, 0.1% Triton X-100 and 50 μM ATP and the radioactivity measured in a scintillation β counter, following sedimentation of the beads as described above. By substituting GST-c Jun for biotinylated GST-1ATF2 or myelin basic protein, this assay can be used to measure inhibition of preactivated p38 and ERK MAP Kinases, respectively.
(§2) The values indicated in respect of JNK2 and 3, p38 and ERK2 refer to the IC50 (μM), i.e. the amount necessary to achieve 50% inhibition of said target (e.g. JNK2). From the above table it could be derived that said test compounds according to formula I do have a significant effect both on JNK2 and 3, but virtually no effect onto p38 and ERK2, thus delivering a quite selective inhibitory effect.

[3] = target: ERK2 (Homo sapiens, UniProt P28482); assay: ERK2 in vitro kinase assay (SPA, myelin basic protein substrate); type: biochemical; conditions: amount necessary to achieve 50% inhibition
Experimental: as §1, §2

[4] = system: Hlr c-Jun HeLa cells; assay: C-Jun reporter assay (Dual-Luciferase); type: cell-based; conditions: Homo sapiens, Hlr c-Jun HeLa cells transfected with pMEKK1
Experimental: Hlr c-Jun HeLa cells are cultured in DMEM High Glc supplemented with 10% FCS (Sigma), 2 mM Glutamine (Gibco), P/S, Hygromycin b 100 μg/mL and G418 250 μg/mL
The cell suspension are diluted with medium to give about 3.5×10^6 cells/mL and 1 mL of cell suspension are put onto 2 10 cm culture dishes containing 9 mL of culture medium.
• Control: 0.2 μg pTK Renilla, 5.8 μg pBluescript KS, 500 μl OPTIMEM (GIBCO), 18 μl Fugene 6 • Induced: 0.1 μg pMEKK1, 0.2 μg pTK Renilla, 5.7 μg pBluescript KS, 500 μl OPTIMEM (GIBCO), 18 μl Fugene 6 30′ RT
The transfection mixture is added to the plated cells. The plates are incubated over night at 37° C. in a humidified atmosphere of 5% CO2 in air
A 96 wells plate containing 100 μl of culture medium per well is prepared
Negative control (vehicle): 2 μl of DMSO is added to the 100 μl (in triplicate).
Compound: 2 μl of Hit compound stock dilution are added to the 100 μl (in triplicate).
The transfected cells are trypsinised and ressuspend in 12 mL of culture medium.
100 μl of the dilution are added to each of the 96 wells plate.
The plate is incubated over night at 37° C. in a humidified atmosphere of 5% CO2 in air
Dual-Luciferase™ Reporter Assay System (Promega)
The medium is removed from the plate and the cells washed two times with 100 μl PBS Completely remove the rinse solution before applying PLB reagent. Dispense into each culture well […] of 1×PLB. Place the culture plates on a rocking platform or orbital shaker with gentle
rocking/shaking to ensure complete and even coverage of the cell monolayer with 1×PLB. Rock the culture plates at room temperature for 15 minutes. Transfer 20 μl of the lysate into a white opaque 96 wells plate. Read in a luminometer.
• Inject 50 μl of Luciferase Assay Reagent II wait 5″, read 10″ • Inject 50 μl of Stop & Glo® Reagent wait 5″, read 10″ Check RLU Luciferase/RLU Renilla *1000

[5] = target: JNK3 (Homo sapiens, UniProt P53779); assay: JNK3 in vitro assay (SPA, GST-c-Jun phosphorylation); type: biochemical; conditions: amount necessary to achieve 50% inhibition, GST-c-Jun substrate
Experimental: as §1, §2

[6] = target: p38 (Homo sapiens, UniProt Q16539); assay: p38 in vitro kinase assay (SPA, GST-ATF2 substrate); type: biochemical; conditions: amount necessary to achieve 50% inhibition
Experimental: as §1, §2

JNK2, sequence (P45984 whole entry, species assumed): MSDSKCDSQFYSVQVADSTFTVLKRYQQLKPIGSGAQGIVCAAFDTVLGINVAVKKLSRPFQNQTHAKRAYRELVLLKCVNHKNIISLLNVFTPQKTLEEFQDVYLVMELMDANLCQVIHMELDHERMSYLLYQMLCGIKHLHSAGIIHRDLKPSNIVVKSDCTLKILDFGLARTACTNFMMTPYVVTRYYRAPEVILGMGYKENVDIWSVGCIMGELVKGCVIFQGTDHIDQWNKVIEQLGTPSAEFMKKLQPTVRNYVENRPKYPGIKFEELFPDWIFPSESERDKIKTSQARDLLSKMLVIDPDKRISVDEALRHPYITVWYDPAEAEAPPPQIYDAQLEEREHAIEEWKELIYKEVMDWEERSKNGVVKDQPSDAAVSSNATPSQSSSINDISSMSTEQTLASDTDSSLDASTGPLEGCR
JNK3, sequence (P53779 whole entry, species assumed): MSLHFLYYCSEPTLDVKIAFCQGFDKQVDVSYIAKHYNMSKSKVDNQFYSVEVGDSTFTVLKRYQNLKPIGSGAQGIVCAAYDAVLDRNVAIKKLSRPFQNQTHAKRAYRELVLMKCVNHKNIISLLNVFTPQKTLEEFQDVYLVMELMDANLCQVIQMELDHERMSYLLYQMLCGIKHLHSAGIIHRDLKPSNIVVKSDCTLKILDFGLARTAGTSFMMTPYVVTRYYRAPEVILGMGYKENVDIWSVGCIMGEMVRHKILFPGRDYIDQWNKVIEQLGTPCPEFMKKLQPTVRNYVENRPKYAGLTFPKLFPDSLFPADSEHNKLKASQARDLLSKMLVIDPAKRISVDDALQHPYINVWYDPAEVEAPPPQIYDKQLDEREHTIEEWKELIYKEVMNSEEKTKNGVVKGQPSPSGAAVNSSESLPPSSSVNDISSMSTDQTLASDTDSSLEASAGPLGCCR
p38, sequence (Q16539 whole entry): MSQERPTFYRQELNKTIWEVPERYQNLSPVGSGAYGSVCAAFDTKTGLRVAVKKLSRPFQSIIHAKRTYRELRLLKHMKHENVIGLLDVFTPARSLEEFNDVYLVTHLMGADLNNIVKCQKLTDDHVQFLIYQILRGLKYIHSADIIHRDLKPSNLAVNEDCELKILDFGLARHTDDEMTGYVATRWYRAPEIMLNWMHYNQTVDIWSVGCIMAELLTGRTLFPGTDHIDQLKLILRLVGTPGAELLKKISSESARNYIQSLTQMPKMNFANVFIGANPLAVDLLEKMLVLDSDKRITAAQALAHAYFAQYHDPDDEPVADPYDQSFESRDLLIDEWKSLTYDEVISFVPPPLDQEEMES
ERK2, sequence (P28482 whole entry, species assumed): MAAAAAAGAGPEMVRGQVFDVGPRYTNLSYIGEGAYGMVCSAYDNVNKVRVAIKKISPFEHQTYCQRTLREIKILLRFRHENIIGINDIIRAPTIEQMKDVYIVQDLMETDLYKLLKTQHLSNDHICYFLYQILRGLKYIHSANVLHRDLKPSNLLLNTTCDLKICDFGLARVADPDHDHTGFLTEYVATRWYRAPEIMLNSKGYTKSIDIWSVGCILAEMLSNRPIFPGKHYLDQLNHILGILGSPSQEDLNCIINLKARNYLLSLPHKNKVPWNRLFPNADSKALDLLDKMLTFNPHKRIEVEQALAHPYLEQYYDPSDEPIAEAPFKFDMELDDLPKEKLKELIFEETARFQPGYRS

Row | SMILES | IC50 [2] [nM] | IC50 [3] [nM] | IC50 [5] [nM] | IC50 [6] [nM] | inhibition at 3 µM [1] [%] | inhibition at 10 µM [4] [%]
1 | O=C(NCc1ccc(S(=O)(=O)N2CCC(C(=O)c3ccc(F)cc3F)CC2)s1)c1ccc(Cl)cc1 [Example 37, 4-chloro-N-[(5-{[4-(2,4-difluorobenzoyl)piperidin-1-yl]sulfonyl}thien-2-yl)methyl]benzamide] | 1190 | > 30000 | 680 | > 30000 | > 30 | > 30
2 | O=C(NCc1ccc(S(=O)(=O)N2CCCN(C(=O)Cc3ccccc3)CC2)s1)c1ccc(Cl)cc1 [Example 84, 4-chloro-N-[(5-{[4-(phenylacetyl)-1,4-diazepan-1-yl]sulfonyl}thien-2-yl)methyl]benzamide] | 1300 | > 30000 | 860 | > 30000 | > 30 | > 30
3 | O=C(NCc1ccc(S(=O)(=O)N2CCC(Nc3ccccc3)CC2)s1)c1ccc(Cl)cc1 [Example 86, N-({5-[(4-anilinopiperidin-1-yl)sulfonyl]thien-2-yl}methyl)-4-chlorobenzamide] | 1050 | > 30000 | 800 | > 30000 | > 30 | > 30
4 | O=C(NCc1ccc(S(=O)(=O)N2CCC(n3nnc4ccccc43)CC2)s1)c1ccc(Cl)cc1 [Example 91, N-[(5-{[4-(1H-1,2,3-benzotriazol-1-yl)piperidin-1-yl]sulfonyl}thien-2-yl)methyl]-4-chlorobenzamide] | 640 | > 30000 | 150 | > 30000 | > 30 | > 30
5 | O=C(NCc1ccc(S(=O)(=O)N2CCC(n3cnc4ccccc43)CC2)s1)c1ccc(Cl)cc1 [Example 109, N-[(5-{[4-(1H-benzimidazol-1-yl)piperidin-1-yl]sulfonyl}thien-2-yl)methyl]-4-chlorobenzamide] | 590 | > 30000 | 230 | > 30000 | > 30 | > 30
6 | O=C(NCc1ccc(S(=O)(=O)N2CCC(Nc3ccc(Cl)cc3)CC2)s1)c1ccc(Cl)cc1 [Example 120, 4-chloro-N-[(5-{[4-(4-chloroanilino)piperidin-1-yl]sulfonyl}thien-2-yl)methyl]benzamide] | 560 | > 30000 | 400 | > 30000 | > 30 | > 30
7 | O=C(NCc1ccc(S(=O)(=O)N2CCC(Nc3cccc(S(=O)(=O)CCO)c3)CC2)s1)c1ccc(Cl)cc1 [Example 131, 4-chloro-N-({5-[(4-{3-[(2-hydroxyethyl)sulfonyl]-anilino}piperidin-1-yl)sulfonyl]thien-2-yl}methyl)-benzamide] | 2230 | > 30000 | 710 | > 30000 | > 30 | > 30
8 | NS(=O)(=O)c1cccc(NC2CCN(S(=O)(=O)c3ccc(CNC(=O)c4ccc(Cl)cc4)s3)CC2)c1 [Example 155, N-{[5-({4-[3-(aminosulfonyl)anilino]piperidin-1-yl}sulfonyl)thien-2-yl]methyl}-4-chlorobenzamide] | 500 | > 30000 | 530 | > 30000 | > 30 | > 30

Second part, led by results:

Row | IC50 [2] [nM] | IC50 [3] [nM] | IC50 [5] [nM] | IC50 [6] [nM] | SMILES | inhibition at 3 µM [1] [%] | inhibition at 10 µM [4] [%]
9 | 1200 | > 30000 | 890 | > 30000 | O=C(NCc1ccc(S(=O)(=O)N2CCN(C(=O)c3cccc4ccccc34)CC2)s1)c1ccc(Cl)cc1 [Example 168, 4-chloro-N-[(5-{[4-(1-naphthoyl)piperazin-1-yl]sulfonyl}thien-2-yl)methyl]benzamide] | > 30 | > 30
10 | 220 | > 30000 | 170 | > 30000 | COc1cccc(NC2CCN(S(=O)(=O)c3ccc(CNC(=O)c4ccc([N+](=O)[O-])cc4)s3)CC2)c1 [Example 204, 4-nitro-N-[(5-{[4-(3-methoxyanilino)piperidin-1-yl]sulfonyl}thien-2-yl)methyl]-benzamide] | > 30 | > 30
11 | 390 | > 30000 | 270 | > 30000 | COC(=O)c1cccc(NC2CCN(S(=O)(=O)c3ccc(CNC(=O)c4ccc([N+](=O)[O-])cc4)s3)CC2)c1 [Example 211, methyl 3-{[1-({5-[({4-nitrobenzoyl}amino)methyl]thien-2-yl}sulfonyl)piperidin-4-yl]amino}benzoate] | > 30 | > 30
12 | 220 | > 30000 | 360 | > 30000 | O=C(NCc1ccc(S(=O)(=O)N2CCC(n3nnc4ccccc43)CC2)s1)c1ccccc1O [Example 271, N-[(5-{[4-(1H-1,2,3-benzotriazol-1-yl)piperidin-1-yl]sulfonyl}thien-2-yl)methyl]-2-hydroxybenzamide] | > 30 | > 30
13 | 230 | > 30000 | 190 | > 30000 | COc1cccc(C(=O)NCc2ccc(S(=O)(=O)N3CCC(Nc4ccccc4[N+](=O)[O-])CC3)s2)c1 [Example 285, N-({5-[(4-{2-nitroanilino}piperidin-1-yl)sulfonyl]thien-2-yl}methyl)-3-methoxybenzamide] | > 30 | > 30
